# According to article PMC9953269, “In Vivo Acute Toxicity Studies of Novel Anti-Melanoma Compounds Downregulators of hnRNPH1/H2” (Biomolecules, 2023):
# Assays:
# Balb/c mice [1] = experiment: Complete blood count (CBC) after 21-day acute toxicity study; type: in vivo; conditions: 50 mg/kg bw sc 3×/week for 21 days; for Eosinohils / Monocytes / WBC / RBC / Segmented Neutrophils / Hgb / MCH / MCHC / HCT / Lymphocytes / MCV / Platelets: mean ± SD; for Eosinohils: n=6, reference range 0.11–4.91; for Monocytes: n=6, reference range 3.29–12.48; for WBC: n=6, reference range 3.48–14.03; for RBC: n=6, reference range 6.93–12.24; for Segmented Neutrophils: n=6, reference range 9.86–39.11; for Hgb: n=6, reference range 12.6–20.5; for MCH: n=6, reference range 13.2–17.6; for MCHC: n=6, reference range 23.3–32.7; for HCT: n=6, reference range 42.1–68.3; for Lymphocytes: n=6, reference range 48.81–83.19; for MCV: n=6, reference range 50.7–64.4; for Platelets: n=6, reference range 420–1698; for Banded Neutrophils: n=6, reference range 0–1; for Basophils: n=6, reference range 0–1.84
# Method: (§1) This study used 5- to 7-week-old male and female Balb/c (Jackson Laboratories) mice. The mice were housed in standard mouse shoe-box cages and maintained in a 12-hr light/12-hr dark cycle, with 50% humidity and 20 ± 3 °C. The mice had free access to a standard pellet diet (Certified PicoLab® Rodent Diet 20, Lab Diet) and water ad libitum. The study was conducted in accordance with the guidelines of the Nova Southeastern University (NSU) Institutional Animal Care and Use Committee (NSU IACUC protocol 2019.12.DM4).
# (§2) The animals were divided into four groups with each group containing six mice (three male and three female). Group 1: non-treated control mice; Group 2: animals were treated with a vehicle control (10%/90% DMSO/sterile water, USP sterile injectable grade) for 21 days; Group 3: animals were treated with 2155-14 (50 mg/kg body weight) for 21 days; and Group 4: animals were treated with 2155-18 (50 mg/kg body weight) for 21 days three times/week. Compounds (2155-14 and 2155-18) were freshly prepared in 10% DMSO/H2O (both USP injectable grade) for each treatment day. Both 2155-14 and 2155-18 were weighed into autoclaved 1.5 mL Eppendorf vials using analytical scales. USP grade DMSO was added to each vial under aseptic conditions and vortexed. USP grade injectable sterile H2O was then added to each vial and again vortexed. Next, 1 mL insulin syringes with a 26-gauge needle were filled with 0.2 mL of the compound and delivered to the vivarium in the closed carrier for animal treatment. For the vehicle control group, syringes were filled with 0.2 mL of 10% DMSO/H2O (USP injectable grade).
# (§3) All mice were euthanized after 21 days by CO2 overdose. Whole blood samples were collected via cardiocentesis with a 25-gauge needle immediately after euthanasia. Blood samples were collected in MiniCollect® Serum and Plasma Tubes containing either K3EDTA or lithium heparin for CBC and blood chemistry, respectively. Blood smears were prepared from whole blood and analyzed for the morphological changes of blood cells under the microscope.
# (§4) The heart, lungs, stomach, intestines, pancreas, spleen, kidney with adrenal, liver, and brain were collected and placed in 10% neutral buffered formalin for histopathology. The tissues were processed via standard tissue processing to produce H&E slides. All H&E slides were reviewed blind to the treatment group. Tissues were evaluated for the presence of inflammation, degeneration, signs of toxicity, and any other abnormalities. CBC, blood chemistry, and histopathology analyses were performed at the Division of Comparative Pathology, University of Miami.
# (§5) Statistical significance was set at p < 0.05. All data were analyzed using one-way ANOVA to compare means, and significant differences were further analyzed by Tukey’s multiple comparisons using Prism (version 8.0, GraphPad Inc., San Diego, CA, USA).
# Balb/c mice [2] = experiment: Blood chemistry after 21-day acute toxicity study; type: in vivo; conditions: 50 mg/kg bw sc 3×/week for 21 days, mean ± SD; for Creatinine: n=6, reference range 0.2–0.4; for Total protein: n=6, reference range 4.6–8.9; for BUN: n=6, reference range 7.0–26; for Phosphorus: n=6, reference range 8.2–14.7; for Calcium: n=6, reference range 9.4–12.5; for Glucose: n=6, reference range 129–329
# Method: as §1, §2, §3, §4, §5
# Balb/c mice [3] = experiment: Body weight during 21-day acute toxicity study; type: in vivo; conditions: 50 mg/kg BW sc 3×/week for 3 weeks, n=6
# Method: as §1
# The animals were divided into four groups with each group containing six mice (three male and three female). Group 1: non-treated control mice; Group 2: animals were treated with a vehicle control (10%/90% DMSO/sterile water, USP sterile injectable grade) for 21 days; Group 3: animals were treated with 2155-14 (50 mg/kg body weight) for 21 days; and Group 4: animals were treated with 2155-18 (50 mg/kg body weight) for 21 days three times/week. Compounds (2155-14 and 2155-18) were freshly prepared in 10% DMSO/H2O (both USP injectable grade) for each treatment day. […]
# as §5
# Balb/c mice [4] = experiment: Histopathology of organs (H&E) after 21-day acute toxicity study; type: in vivo; conditions: 50 mg/kg sc, 21 days
# Method: as §2
# (§6) The heart, lungs, stomach, intestines, pancreas, spleen, kidney with adrenal, liver, and brain were collected and placed in 10% neutral buffered formalin for histopathology. […] Tissues were evaluated for the presence of inflammation, degeneration, signs of toxicity, and any other abnormalities. […]
# Balb/c mice [5] = experiment: Overall acute toxicity after sc administration; type: in vivo; conditions: 50 mg/kg sc, 21 days
# Method: as §1
# The animals were divided into four groups with each group containing six mice (three male and three female). […]
# All mice were euthanized after 21 days by CO2 overdose. […] Blood smears were prepared from whole blood and analyzed for the morphological changes of blood cells under the microscope.
# as §6
# melanoma cells = conditions: in vitro; read-out: IC50, inhibition of viability of melanoma cells; cited from earlier work
# [6] = tested on: various cell types (liver, lung, breast, brain, skin, ovary, primary melanocytes, primary keratinocytes); conditions: in vitro, tested up to 100 µM; cited from earlier work
# primary melanocytes = conditions: in vitro; cited from earlier work
Structure (SMILES),Eosinohils (Balb/c mice [1]) [%],Monocytes (Balb/c mice [1]) [%],WBC (Balb/c mice [1]) [K/µL],RBC (Balb/c mice [1]) [M/µL],Segmented Neutrophils (Balb/c mice [1]) [%],Hgb (Balb/c mice [1]),MCH (Balb/c mice [1]) [pg],MCHC (Balb/c mice [1]) [g/dL],HCT (Balb/c mice [1]) [%],Lymphocytes (Balb/c mice [1]) [%],MCV (Balb/c mice [1]) [fL],Platelets (Balb/c mice [1]) [K/µL],Banded Neutrophils (Balb/c mice [1]) [%],Basophils (Balb/c mice [1]) [%],Creatinine (Balb/c mice [2]),Total protein (Balb/c mice [2]) [g/dL],BUN (Balb/c mice [2]) [mg/dL],Phosphorus (Balb/c mice [2]),Calcium (Balb/c mice [2]) [mg/dL],Glucose (Balb/c mice [2]) [mg/dL],other results
O=C1NC[C@H](Cc2ccccc2)N(C[C@@H]2CCCN2C[C@@H](CC2CCCCC2)N2C[C@H](Cc3ccc(O)cc3)N(CCc3ccccc3)C(=O)C2=O)C1=O [Compound 2155-14],0.5 ± 1.2,4.25 ± 4.27,5.1 ± 1.6,10.6 ± 2.1,18.8 ± 8.0,14.1 ± 1.6 g/dL,14 ± 2.3,23 ± 5.1,61.1,78.3 ± 7.5,61 ± 2.2,542 ± 95,0,0,* 0.44 ± 0.19 mg/dL,7.1 ± 0.6,18.3 ± 2.5,13.6 ± 0.4 mg/dL,9.1 ± 0.85,181 ± 25.7,"Change in body weight versus control groups (Balb/c mice [3]): No significant changes in body weight; Histopathological examination of hearts and livers (Balb/c mice [4]): no adverse effects; Acute toxicity after sc administration (Balb/c mice [5]): lack of acute toxicity; IC50 (melanoma cells): 0.5 to 10 µM; TC50, toxicity against various cell types [6]: > 100 µM; Effect on viability of primary melanocytes (primary melanocytes): do not have an effect on the viability of primary melanocytes"
O=C1NC[C@H](Cc2ccccc2)N(C[C@@H]2CCCN2C[C@H](Cc2ccccc2)N2C[C@H](Cc3ccc(O)cc3)N(CCC34CC5CC(CC(C5)C3)C4)C(=O)C2=O)C1=O [Compound 2155-18],2 ± 1,6.7 ± 2.3,4.2 ± 2.7,7.9 ± 1.4,24.7 ± 10.9,* 11.9 ± 1.6 g/dL,14.7 ± 0.57,25.3 ± 0.58,46.9 ± 6.4,70.7 ± 11.3,59.3 ± 2.1,741 ± 305,0,0,* 0.46 ± 0.11 mg/dL,6.7 ± 0.48,16.7 ± 1.6,* 15.3 ± 0.25 mg/dL,8.7 ± 0.75,212 ± 50.5,"Change in body weight versus control groups (Balb/c mice [3]): No significant changes in body weight; Histopathological examination of hearts and livers (Balb/c mice [4]): no adverse effects; Acute toxicity after sc administration (Balb/c mice [5]): lack of acute toxicity; IC50 (melanoma cells): 0.5 to 10 µM; TC50, toxicity against various cell types [6]: > 100 µM; Effect on viability of primary melanocytes (primary melanocytes): do not have an effect on the viability of primary melanocytes"
